From article PMC8125686, “Molecular Basis of Multiple Mitochondrial Dysfunctions Syndrome 2 Caused by CYS59TYR BOLA3 Mutation” (International Journal of Molecular Sciences, 2021)

Biological target: T1, NFU1 (Homo sapiens, UniProt Q9UMS0)
T1 sequence (Q9UMS0 10-254): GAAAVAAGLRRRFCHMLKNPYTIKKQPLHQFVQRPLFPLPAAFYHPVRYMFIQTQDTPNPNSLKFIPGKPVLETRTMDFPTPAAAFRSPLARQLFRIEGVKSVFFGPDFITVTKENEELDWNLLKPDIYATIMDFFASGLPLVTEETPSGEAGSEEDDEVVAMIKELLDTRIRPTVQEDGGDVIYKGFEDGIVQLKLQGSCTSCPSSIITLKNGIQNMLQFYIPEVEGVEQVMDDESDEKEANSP
Assay: 1H-15N HSQC NMR of cluster assembly on 15N-labelled apo NFU1
Type: binding
Settings: cluster donor [2Fe-2S] C59Y BOLA3-GLRX5 at 1:1; 5 mM DTT; 5 mM GSH; anaerobic

[S]12[Fe]3[S]4[Fe]1[S]1[Fe]2[S]3[Fe]41 [[4Fe–4S]2+ cluster]
amount of [4Fe-4S] NFU1 formed in the final mixture: 25%
